Measurements as given in paper PMC3059404 (Bioconjugate chemistry, 2011).

Tested on: MDA-MB-435 tumor-bearing mice
Assay: Small animal PET, organ uptake in orthotopic MDA-MB-435 tumor-bearing mice
Assay type: in vivo, athymic nude mice
Settings: co-injection with excess (0.5 μmol, 300 μg) c(RGDfk), 0.5 h

4-^18F-fluoro-3-trifluoromethylbenzoyl-E[c(RGDfk)2] [^18F-4]
reduction of tumor uptake by blocking: 82%
